Results on one compound are retold here after US20100063102A1, “TREATMENT OF FAECAL INCONTINENCE” (UROGENE, priority 2007, published 2010).

“Also recorded” adds a separate entry of the source.

For this assay, the system named is striated anal sphincter. Briefly: Effect on the electromyographic activity of the rabbit striated anal sphincter under bladder irritation (SS-EMG). In kind it is in vivo. How it is done:
The effect of the HP749 compound was tested on rabbits under conditions of bladder irritation. Female rabbits of the New Zealand race weighing from 2.5 to 3.5 kg were used. The bladder irritation was caused by transcontinuous bladder infusion of 0.5% acetic acid. Under these conditions, the striated anal sphincter electromyography is increased. Throughout the experiment, the animal was placed in the supine position and anaesthetized with 2-3% of halothane. The striated sphincter electromyography (SS-EMG) was carried out using two electrodes (30-gauge needle) placed percutaneously in the striated anal sphincter, approximately 5-10 mm from the anus (laterally). The electric signals were amplified on an ML136 preamplifier (AD Instruments, PanLab, Barcelona, Spain), filtered below 1 Hz and above 5 KHz and presented in a PowerLab window. The striated sphincter electromyography (SS-EMG) was recorded continuously during the cystometry. Cumulative doses of the HP749 compound (0, 1, 3 and 5 mg/kg) were administered through an intravenous canula connected to the ear vein. The medicaments in saline solution were freshly prepared before each experiment and administered in a volume of 1 ml, followed by rinsing with 1 ml of physiological saline solution. The results were expressed by the mean±the standard error of the […]. The electromyographic values obtained under conditions of irritation after administration of a placebo were used as control values. The effects of the HP749 compound were analysed and compared with the control values by means of a Wilcoxon test. The results obtained were considered to be significant when p<0.05.

Take `CCCN(c1ccncc1)n1ccc2ccccc21` [HP749, N-propyl-N-(4-pyridinyl)-1H-indol-1-amine]: the “mean increase in the EMG activity compared with the control value” (anaesthetized female New Zealand rabbits, bladder irritation with 0.5% acetic acid, cumulative i.v. doses 1, 3 and 5 mg/kg, control = placebo, p<0.01) is given as 155%. The “effect on the electromyographic (EMG) activity of the striated anal sphincter” value (at all the doses (1, 3 and 5 mg/kg i.v.), FIG. 1, Wilcoxon test vs placebo control) is on record as “significant effect; also recorded: powerful effect”. In addition, the “dose at which the effect on the external anal sphincter appeared to have reached its maximum” value (rabbits, i.v., lowest dose tested) is 1 mg/kg.
